Reference: US20230355584A1, “COMPOSITIONS AND METHODS FOR THE TREATMENT OF LIPID-RELATED DISORDERS” (Raziel Therapeutics Ltd., priority 2020, published 2023)

Key:
Format in all cases: in vivo
submental fat [1] = experiment: Phase 2a study: Subject Face-Q Questionnaire (subject satisfaction); conditions: human subjects, Day 84 vs. baseline
Description: 28 patients with submental skin fold thickness greater than 1.5 cm as measured with calipers were divided into two cohorts, Cohort 1 (12 patients) and Cohort 2 (16 subjects). In Cohort 1, 8 subjects were injected with a 50 mg per mL solution of 5-(3,6-dibromo-9H-carbazol-9-yl)-N,N,N-trimethylpentan-1-aminium chloride (Compound 1A) in a vehicle comprising water, propylene glycol, and a surfactant, and 4 patients were injected with a placebo solution comprising vehicle only. […] Dosing is determined by cohort, as shown in Table 6 below: The maximum compound dose was 120 mg per patient (a total of 48 injections at 2.5 mg per injection) for Cohort 1 and 240 mg per patient (a total of 48 injections at 5 mg per injection) for Cohort 2. […] Cohort 2 subjects began treatment after Cohort 1 was evaluated for safety on day 28 post-injection. Subjects were also evaluated by a Face-Q Questionnaire, at baseline visit prior to injection and at posttreatment follow up visits on Days 28, 56, and 84. […] Submental fat volume was determined via magnetic resonance imaging (MRI) prior to injection and on day 84 post-injection. Treatment efficacy was evaluated via the Physician’s Global Assessment (PGS) questionnaire on days 28, 56, and 84 after injection, as described above. […]

[2] = Phase 2a study: safety and tolerability (adverse events, vital signs); conditions: human subjects
Description: 28 patients with submental skin fold thickness greater than 1.5 cm as measured with calipers were divided into two cohorts, Cohort 1 (12 patients) and Cohort 2 (16 subjects). In Cohort 1, 8 subjects were injected with a 50 mg per mL solution of 5-(3,6-dibromo-9H-carbazol-9-yl)-N,N,N-trimethylpentan-1-aminium chloride (Compound 1A) in a vehicle comprising water, propylene glycol, and a surfactant, and 4 patients were injected with a placebo solution comprising vehicle only. In Cohort 2, 6 patients were dosed with a placebo solution comprising vehicle only, and 10 patients were injected with a 50 mg per mL solution of 5-(3,6-dibromo-9H-carbazol-9-yl)-N,N,N-trimethylpentan-1-aminium chloride in a vehicle comprising water, propylene glycol, and a surfactant.
The maximum compound dose was 120 mg per patient (a total of 48 injections at 2.5 mg per injection) for Cohort 1 and 240 mg per patient (a total of 48 injections at 5 mg per injection) for Cohort 2. Injections were given at a 90° angle to the injected skin surface and spaced of a submental area-shaped grid in which the distance between rows was 1 cm and the distance between columns was also 1 cm. Cohort 2 subjects began treatment after Cohort 1 was evaluated for safety on day 28 post-injection.

submental fat [3] = experiment: Phase 2a study: Physician Impression scale (physician's global assessment of submental fat); conditions: human, 18 treated subjects (low and high dose), Day 84 vs baseline
Description: 28 patients with submental skin fold thickness greater than 1.5 cm as measured with calipers were divided into two cohorts, Cohort 1 (12 patients) and Cohort 2 (16 subjects). In Cohort 1, 8 subjects were injected with a 50 mg per mL solution of 5-(3,6-dibromo-9H-carbazol-9-yl)-N,N,N-trimethylpentan-1-aminium chloride (Compound 1A) in a vehicle comprising water, propylene glycol, and a surfactant, and 4 patients were injected with a placebo solution comprising vehicle only. […] Dosing is determined by cohort, as shown in Table 6 below: The maximum compound dose was 120 mg per patient (a total of 48 injections at 2.5 mg per injection) for Cohort 1 and 240 mg per patient (a total of 48 injections at 5 mg per injection) for Cohort 2. […] Cohort 2 subjects began treatment after Cohort 1 was evaluated for safety on day 28 post-injection. […] Submental fat volume was determined via magnetic resonance imaging (MRI) prior to injection and on day 84 post-injection. Treatment efficacy was evaluated via the Physician’s Global Assessment (PGS) questionnaire on days 28, 56, and 84 after injection, as described above. Patient satisfaction was assessed using the FACE-Q questionnaire prior to injection and on days 28, 56, and 84 after injection, as described above.

submental fat [4] = experiment: Phase 2a study: submental fat volume by MRI; conditions: human subjects, day 84 vs prior to injection
Description: 28 patients with submental skin fold thickness greater than 1.5 cm as measured with calipers were divided into two cohorts, Cohort 1 (12 patients) and Cohort 2 (16 subjects). In Cohort 1, 8 subjects were injected with a 50 mg per mL solution of 5-(3,6-dibromo-9H-carbazol-9-yl)-N,N,N-trimethylpentan-1-aminium chloride (Compound 1A) in a vehicle comprising water, propylene glycol, and a surfactant, and 4 patients were injected with a placebo solution comprising vehicle only. In Cohort 2, 6 patients were dosed with a placebo solution comprising vehicle only, and 10 patients were injected with a 50 mg per mL solution of 5-(3,6-dibromo-9H-carbazol-9-yl)-N,N,N-trimethylpentan-1-aminium chloride in a vehicle comprising water, propylene glycol, and a surfactant. […] Cohort 2 subjects began treatment after Cohort 1 was evaluated for safety on day 28 post-injection. Submental fat volume was determined via magnetic resonance imaging (MRI) prior to injection and on day 84 post-injection. Treatment efficacy was evaluated via the Physician’s Global Assessment (PGS) questionnaire on days 28, 56, and 84 after injection, as described above. Patient satisfaction was assessed using the FACE-Q questionnaire prior to injection and on days 28, 56, and 84 after injection, as described above.

Structure (SMILES): C[N+](C)(C)CCCCCn1c2ccc(Br)cc2c2cc(Br)ccc21.[Cl-] [Compound 1A, 5-(3,6-dibromo-9H-carbazol-9-yl)-N,N,N-trimethylpentan-1-aminium chloride]
- Fold increase in mean subject satisfaction score (Face-Q) (submental fat [1]; high dose): 2.5 fold
- Fold increase in mean subject satisfaction score (Face-Q) (submental fat [1]; low dose): 2.4 fold
- Severity of edema and induration compared to placebo ([2]; high dose group, particularly in the first 24 hours following injection): higher severity
- Safety and tolerability ([2]; low and high doses (averaged doses of 80 mg and 158.5 mg), no clinically significant changes in vital signs): safe and well tolerated
- Subjects demonstrating improvement in submental fat (Physician Impression scale) (submental fat [3]): all but one of the 18
- Submental fat volume reduction (MRI) (submental fat [4]; high dose (Cohort 2, 5 mg/injection, up to 240 mg), P<0.05 vs the placebo group): -22.2% ± 14.9
- Submental fat volume reduction (MRI) (submental fat [4]; low dose (Cohort 1, 2.5 mg/injection, up to 120 mg), P=0.55 vs the placebo group, NS): -10.6% ± 14.5
